Assay results from PubChem BioAssay AID248 (DTP/NCI, 2004).
Several values for one entry are separate records, joined by “and”; a condition that tells them apart may be missing. Equal entries are not always repeated. Toxic doses and inconclusive results are not listed. Rule as the data show it: active = T/C of 150% or more; inactive = T/C below 125%. Square brackets hold non-standard residues; d marks the D form. Peptide text beside a SMILES is read from it. ξ: configuration not given here. ξE = NC(CCC(=O)O)C(=O)O

Tested on: L1210 leukemia ip in BDF1 mice, survival T/C
Assay: NCI In Vivo Anticancer Drug Screen. Data for tumor model L1210 Leukemia (intraperitoneal) in B6D2F1 (BDF1) mice
Conditions: endpoint: mean survival time, higher = longer survival
Method in brief: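 Ratio derived from survival: compound-dosed mice over vehicle-dosed mice, all bearing a transplantable tumor.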

[1] = dose: 100.0 mg/kg/injection, schedule: Q04DX002 (ip), vehicle: Klucel (hydroxypropylcellulose) (HPC)
[2] = dose: 200.0 mg/kg/injection, schedule: Q04DX002 (ip), vehicle: Klucel (hydroxypropylcellulose) (HPC)
[3] = dose: 100.0 mg/kg/injection, schedule: Q01DX001 (ip), vehicle: carboxymethylcellulose (CMC)
[4] = dose: 200.0 mg/kg/injection, schedule: Q01DX001 (ip), vehicle: carboxymethylcellulose (CMC)
[5] = dose: 400.0 mg/kg/injection, schedule: Q01DX001 (ip), vehicle: carboxymethylcellulose (CMC)
[6] = dose: 100.0 mg/kg/injection, schedule: Q01DX001 (ip), vehicle: saline
[7] = dose: 200.0 mg/kg/injection, schedule: Q01DX001 (ip), vehicle: saline
[8] = dose: 400.0 mg/kg/injection, schedule: Q01DX001 (ip), vehicle: saline
[9] = dose: 100.0 mg/kg/injection, schedule: Q04DX003 (ip), vehicle: saline with Tween-80
[10] = dose: 200.0 mg/kg/injection, schedule: Q04DX003 (ip), vehicle: saline with Tween-80
[11] = dose: 100.0 mg/kg/injection, schedule: Q04DX003 (ip), vehicle: saline
[12] = dose: 200.0 mg/kg/injection, schedule: Q04DX003 (ip), vehicle: saline
[13] = dose: 400.0 mg/kg/injection, schedule: Q04DX003 (ip), vehicle: saline
[14] = dose: 100.0 mg/kg/injection, schedule: Q01DX001 (ip), vehicle: Klucel (hydroxypropylcellulose) (HPC)
[15] = dose: 200.0 mg/kg/injection, schedule: Q01DX001 (ip), vehicle: Klucel (hydroxypropylcellulose) (HPC)
[16] = dose: 400.0 mg/kg/injection, schedule: Q01DX001 (ip), vehicle: Klucel (hydroxypropylcellulose) (HPC)
[17] = dose: 100.0 mg/kg/injection, schedule: Q01DX009 (ip), vehicle: Klucel (hydroxypropylcellulose) (HPC)
[18] = dose: 200.0 mg/kg/injection, schedule: Q01DX009 (ip), vehicle: Klucel (hydroxypropylcellulose) (HPC)

Measured: T/C

N#C/C(=C\c1ccc(-c2ccccc2)cc1)c1ccccc1
inactive: dose: 12.5 mg/kg/injection, schedule: Q01DX009 (ip), vehicle: saline with Tween-80 87 % of control | dose: 12.5 mg/kg/injection, schedule: Q04DX003 (ip), vehicle: saline with Tween-80 109 % of control | dose: 25.0 mg/kg/injection, schedule: Q01DX009 (ip), vehicle: saline with Tween-80 87 % of control | dose: 25.0 mg/kg/injection, schedule: Q04DX003 (ip), vehicle: saline with Tween-80 91 % of control | dose: 50.0 mg/kg/injection, schedule: Q01DX009 (ip), vehicle: saline with Tween-80 86 % of control | dose: 50.0 mg/kg/injection, schedule: Q04DX003 (ip), vehicle: saline with Tween-80 88 % of control

[Cl][Pt+2]([Cl])([Cl])[Cl].c1ccc(C2CC[N-]CC2)cc1.c1ccc(C2CC[N-]CC2)cc1
inactive: dose: 50.0 mg/kg/injection, schedule: Q01DX009 (ip), vehicle: water 101 % of control | dose: 100.0 mg/kg/injection, schedule: Q01DX009 (ip), vehicle: water 102 % of control | dose: 100.0 mg/kg/injection, schedule: Q04DX003 (ip), vehicle: water 105 % of control | dose: 200.0 mg/kg/injection, schedule: Q04DX003 (ip), vehicle: water 103 % of control

COC1OC(COC(=S)SCC2OC(OC)C(OC)C(OC)C2OC)C(OC)C(OC)C1OC (stereo not drawn)
inactive: [1] 100 % of control | [2] 93 % of control and 92 % of control | dose: 400.0 mg/kg/injection, schedule: Q04DX002 (ip), vehicle: Klucel (hydroxypropylcellulose) (HPC) 96 % of control and 89 % of control

CCOc1ccc(Cl)cc1C1N(Cc2ccc(OC)cc2)CCCN1Cc1ccc(OC)cc1
inactive: [3] 98 % of control | [4] 98 % of control | [5] 102 % of control

COc1ccccc1/C(C)=N\NC(N)=O
inactive: [6] 97 % of control | [7] 93 % of control | [8] 103 % of control

O=S(=O)(CS(=O)(=O)Oc1ccccc1)Oc1ccccc1
inactive: [3] 93 % of control | [4] 102 % of control | [5] 93 % of control

c1cnc2c3c(ccc2c1)CN(C12CC4CC(CC(C4)C1)C2)CO3
inactive: [9] 102 % of control | [10] 107 % of control

C=CC1COC=C2CN3CCc4cc(OC)c(O)cc4C3CC21 (stereo not drawn)
inactive: dose: 50.0 mg/kg/injection, schedule: Q01DX009 (ip), vehicle: saline 100 % of control | dose: 100.0 mg/kg/injection, schedule: Q01DX009 (ip), vehicle: saline 104 % of control | [11] 100 % of control | dose: 200.0 mg/kg/injection, schedule: Q01DX009 (ip), vehicle: saline 98 % of control | [12] 101 % of control | [13] 97 % of control

CN(C)N=Nc1ccccc1C(=O)NN
inactive: dose: 18.75 mg/kg/injection, schedule: Q01DX009 (ip), vehicle: Klucel (hydroxypropylcellulose) (HPC) 94 % of control and 110 % of control | dose: 37.5 mg/kg/injection, schedule: Q01DX009 (ip), vehicle: Klucel (hydroxypropylcellulose) (HPC) 105 % of control and 107 % of control | dose: 50.0 mg/kg/injection, schedule: Q01DX001 (ip), vehicle: carboxymethylcellulose (CMC) 101 % of control | dose: 75.0 mg/kg/injection, schedule: Q01DX009 (ip), vehicle: Klucel (hydroxypropylcellulose) (HPC) 100 % of control and 115 % of control | [3] 101 % of control | dose: 150.0 mg/kg/injection, schedule: Q01DX009 (ip), vehicle: Klucel (hydroxypropylcellulose) (HPC) 107 % of control | [4] 101 % of control

O=C(Nc1cc(C(F)(F)F)ccc1Cl)Nc1cc(Cl)c(Oc2ccc(Cl)cc2)cc1S(=O)(=O)O
inactive: dose: 100.0 mg/kg/injection, schedule: Q04DX003 (ip), vehicle: saline sonified 105 % of control | dose: 200.0 mg/kg/injection, schedule: Q04DX003 (ip), vehicle: saline sonified 100 % of control

CCOC(=O)C(O)(CC)c1ccncc1C (stereo not drawn)
inactive: [11] 96 % of control | [12] 98 % of control | [13] 100 % of control

CC1=C(O)C(=O)C(C2=C(O)C(=O)C(C)=C(O)C2=O)=C(O)C1=O
inactive: dose: 0.1 mg/kg/injection, schedule: Q01DX Z (ip), vehicle: carboxymethylcellulose (CMC) 111 % of control | dose: 0.2 mg/kg/injection, schedule: Q01DX Z (ip), vehicle: carboxymethylcellulose (CMC) 105 % of control | dose: 0.5 mg/kg/injection, schedule: Q01DX Z (ip), vehicle: carboxymethylcellulose (CMC) 94 % of control | dose: 1.0 mg/kg/injection, schedule: Q01DX Z (ip), vehicle: carboxymethylcellulose (CMC) 94 % of control | dose: 5.0 mg/kg/injection, schedule: Q01DX001 (ip), vehicle: carboxymethylcellulose (CMC) 103 % of control | dose: 10.0 mg/kg/injection, schedule: Q01DX001 (ip), vehicle: carboxymethylcellulose (CMC) 102 % of control | dose: 12.0 micrograms/kg/injection, schedule: Q01DX Z (ip), vehicle: carboxymethylcellulose (CMC) 101 % of control | dose: 25.0 micrograms/kg/injection, schedule: Q01DX Z (ip), vehicle: carboxymethylcellulose (CMC) 101 % of control | dose: 50.0 micrograms/kg/injection, schedule: Q01DX Z (ip), vehicle: carboxymethylcellulose (CMC) 101 % of control

O=C1CC(Cl)C(=O)N1c1ccccc1 (stereo not drawn)
inactive: dose: 75.0 mg/kg/injection, schedule: Q01DX009 (ip), vehicle: saline with Tween-80 112 % of control | dose: 75.0 mg/kg/injection, schedule: Q04DX003 (ip), vehicle: saline with Tween-80 96 % of control | dose: 150.0 mg/kg/injection, schedule: Q01DX009 (ip), vehicle: saline with Tween-80 102 % of control | dose: 150.0 mg/kg/injection, schedule: Q04DX003 (ip), vehicle: saline with Tween-80 102 % of control | dose: 300.0 mg/kg/injection, schedule: Q04DX003 (ip), vehicle: saline with Tween-80 101 % of control

CC12C3C(=O)NC45CCCC41C5(c1ccccc1)C32c1ccccc1 (stereo not drawn)
inactive: [14] 96 % of control | [15] 96 % of control | [16] 94 % of control

O=C(Nc1ccccc1F)Oc1ccc(Cl)cc1Cl
inactive: dose: 50.0 mg/kg/injection, schedule: Q01DX009 (ip), vehicle: Klucel (hydroxypropylcellulose) (HPC) 114 % of control | [17] 111 % of control | [1] 105 % of control | [18] 102 % of control | [2] 102 % of control

Cc1c(O)ccc2ccc(=O)oc12
inactive: [3] 98 % of control | [4] 90 % of control | [5] 93 % of control

O=C(CSc1cc(-c2ccc(Cl)cc2)s[s+]1)c1ccc(Cl)cc1
inactive: [11] 102 % of control | [12] 98 % of control | [13] 98 % of control

COC(=O)c1cc(C(=O)OC(C)(C)C)c(-c2ccc(OC)c(OC)c2)c2cc(OC)c(OC)cc12
inactive: [6] 100 % of control | [7] 101 % of control | [8] 103 % of control

CCc1ccccc1NC(=O)N1CCCCC1C (stereo not drawn)
inactive: [17] 102 % of control | [18] 94 % of control

O=c1ccn(CCCc2ccccc2)c(=O)[nH]1
inactive: [17] 94 % of control | [18] 109 % of control | dose: 400.0 mg/kg/injection, schedule: Q01DX009 (ip), vehicle: Klucel (hydroxypropylcellulose) (HPC) 94 % of control

CC1Cc2cccc3cc4c(ccc5ccccc54)c1c23 (stereo not drawn)
inactive: [14] 98 % of control and 104 % of control | [15] 97 % of control and 103 % of control | [16] 95 % of control and 110 % of control

COc1ccc(OC)c(NC(=O)c2cccc(N)c2)c1
inactive: [3] 111 % of control | [4] 105 % of control | [5] 103 % of control

C(=N\Nc1nnn(Cc2ccccc2)n1)/c1ccccc1
inactive: dose: 100.0 mg/kg/injection, schedule: Q01DX009 (ip), vehicle: saline with Tween-80 95 % of control | [9] 110 % of control | dose: 200.0 mg/kg/injection, schedule: Q01DX009 (ip), vehicle: saline with Tween-80 102 % of control | [10] 102 % of control | dose: 400.0 mg/kg/injection, schedule: Q01DX009 (ip), vehicle: saline with Tween-80 93 % of control | dose: 400.0 mg/kg/injection, schedule: Q04DX003 (ip), vehicle: saline with Tween-80 90 % of control

NC(CCC(=O)O)C(=O)NCC(=O)O (stereo not drawn) (H-[ξE]-Gly-OH)
inactive: dose: 12.5 mg/kg/injection, schedule: Q04DX002 (ip), vehicle: saline 96 % of control | dose: 25.0 mg/kg/injection, schedule: Q04DX002 (ip), vehicle: saline 102 % of control | dose: 50.0 mg/kg/injection, schedule: Q04DX002 (ip), vehicle: saline 90 % of control
